In the NIST ThermoML archive (doi:10.1021/acs.jced.7b00694):

Experiment: xn = mol fraction of the nth substance listed
Conditions: Gas, Buoyancy - hydrostatic balance with magnetic suspension - one sinker

[HH] [hydrogen] + N#N
Conditions	mass density [kg/m3]
324.95 K, 4997 kPa, x2 = 0.95	49.08
324.95 K, 4998 kPa, x2 = 0.9	46.597
324.95 K, 5000 kPa, x2 = 0.5001	27.194
324.95 K, 5997 kPa, x2 = 0.9	55.762
324.95 K, 5997 kPa, x2 = 0.95	58.767
324.95 K, 6001 kPa, x2 = 0.5001	32.482
324.95 K, 6997 kPa, x2 = 0.9	64.863
324.95 K, 7000 kPa, x2 = 0.95	68.408
324.95 K, 7002 kPa, x2 = 0.5001	37.712
324.95 K, 7996 kPa, x2 = 0.5001	42.85
324.95 K, 7997 kPa, x2 = 0.95	77.913
324.95 K, 7998 kPa, x2 = 0.9	73.894
324.95 K, 8997 kPa, x2 = 0.5001	47.967
324.95 K, 8998 kPa, x2 = 0.9	82.834
324.95 K, 8999 kPa, x2 = 0.95	87.379
324.95 K, 9998 kPa, x2 = 0.5001	53.025
324.95 K, 9998 kPa, x2 = 0.9	91.672
324.95 K, 9999 kPa, x2 = 0.95	96.736
324.95 K, 10996 kPa, x2 = 0.5001	58.014
324.95 K, 10996 kPa, x2 = 0.95	105.963
324.95 K, 10997 kPa, x2 = 0.9	100.42
324.95 K, 11997 kPa, x2 = 0.5001	62.949
324.95 K, 11999 kPa, x2 = 0.9	109.068
324.95 K, 12979 kPa, x2 = 0.95	123.971
324.95 K, 12995 kPa, x2 = 0.5001	67.81
324.95 K, 13000 kPa, x2 = 0.9	117.611
324.95 K, 13992 kPa, x2 = 0.5001	72.609
324.95 K, 13997 kPa, x2 = 0.9	126.005
324.95 K, 13998 kPa, x2 = 0.95	133.041
324.95 K, 14993 kPa, x2 = 0.5001	77.366
324.95 K, 14996 kPa, x2 = 0.9	134.301
324.95 K, 15985 kPa, x2 = 0.5001	82.016
324.95 K, 15998 kPa, x2 = 0.9	142.496
324.95 K, 16998 kPa, x2 = 0.5001	86.706
324.95 K, 17000 kPa, x2 = 0.9	150.561
324.95 K, 17998 kPa, x2 = 0.5001	91.271
324.95 K, 18003 kPa, x2 = 0.9	158.509
324.95 K, 18996 kPa, x2 = 0.5001	95.768
324.95 K, 19001 kPa, x2 = 0.9	166.298
324.95 K, 19974 kPa, x2 = 0.5001	100.115
349.93 K, 2982 kPa, x2 = 0.95	27.214
349.93 K, 12999 kPa, x2 = 0.95	114.314
349.93 K, 13999 kPa, x2 = 0.95	122.495
349.93 K, 14993 kPa, x2 = 0.95	130.518
349.93 K, 15998 kPa, x2 = 0.95	138.524
349.94 K, 997 kPa, x2 = 0.95	9.137
349.94 K, 998 kPa, x2 = 0.9	8.697
349.94 K, 999 kPa, x2 = 0.5001	5.133
349.94 K, 1998 kPa, x2 = 0.5001	10.223
349.94 K, 1998 kPa, x2 = 0.95	18.271
349.94 K, 1999 kPa, x2 = 0.9	17.375
349.94 K, 2979 kPa, x2 = 0.9	25.835
349.94 K, 2984 kPa, x2 = 0.5001	15.198
349.94 K, 3995 kPa, x2 = 0.5001	20.259
349.94 K, 3997 kPa, x2 = 0.95	36.385
349.94 K, 3998 kPa, x2 = 0.9	34.568
349.94 K, 4998 kPa, x2 = 0.9	43.083
349.94 K, 4998 kPa, x2 = 0.95	45.368
349.94 K, 5000 kPa, x2 = 0.5001	25.225
349.94 K, 5998 kPa, x2 = 0.5001	30.119
349.94 K, 5998 kPa, x2 = 0.9	51.533
349.94 K, 5998 kPa, x2 = 0.95	54.273
349.94 K, 6996 kPa, x2 = 0.5001	34.959
349.94 K, 6996 kPa, x2 = 0.95	63.099
349.94 K, 6997 kPa, x2 = 0.9	59.903
349.94 K, 7995 kPa, x2 = 0.5001	39.749
349.94 K, 7998 kPa, x2 = 0.9	68.207
349.94 K, 7998 kPa, x2 = 0.95	71.871
349.94 K, 8997 kPa, x2 = 0.5001	44.504
349.94 K, 8998 kPa, x2 = 0.9	76.424
349.94 K, 8999 kPa, x2 = 0.95	80.553
349.94 K, 9995 kPa, x2 = 0.5001	49.185
349.94 K, 9996 kPa, x2 = 0.9	84.544
349.94 K, 9999 kPa, x2 = 0.95	89.144
349.94 K, 10995 kPa, x2 = 0.5001	53.825
349.94 K, 10996 kPa, x2 = 0.9	92.584
349.94 K, 10998 kPa, x2 = 0.95	97.623
349.94 K, 11994 kPa, x2 = 0.5001	58.4
349.94 K, 11995 kPa, x2 = 0.95	105.989
349.94 K, 11997 kPa, x2 = 0.9	100.534
349.94 K, 12994 kPa, x2 = 0.9	108.364
349.94 K, 12996 kPa, x2 = 0.5001	62.939
349.94 K, 13990 kPa, x2 = 0.5001	67.389
349.94 K, 14000 kPa, x2 = 0.9	116.157
349.94 K, 14992 kPa, x2 = 0.5001	71.82
349.94 K, 14999 kPa, x2 = 0.9	123.797
349.94 K, 15993 kPa, x2 = 0.9	131.294
349.94 K, 15994 kPa, x2 = 0.5001	76.196
349.94 K, 16996 kPa, x2 = 0.5001	80.519
349.94 K, 16996 kPa, x2 = 0.95	146.347
349.94 K, 17001 kPa, x2 = 0.9	138.788
349.94 K, 17991 kPa, x2 = 0.5001	84.762
349.94 K, 17997 kPa, x2 = 0.9	146.084
349.94 K, 18002 kPa, x2 = 0.95	154.124
349.94 K, 18991 kPa, x2 = 0.5001	88.967
349.94 K, 18992 kPa, x2 = 0.9	153.266
349.94 K, 18992 kPa, x2 = 0.95	161.661
349.94 K, 19744 kPa, x2 = 0.9	158.626
349.94 K, 19885 kPa, x2 = 0.5001	92.681
349.94 K, 19940 kPa, x2 = 0.95	168.761
